The values that follow come from patent publication US20100204115A1, “USE OF ACETYL- (ALA10, 11)-RANTES (1-14) AND/OR CALCITONIN AS ANTI-ANGIOGENIC AGENTS” (priority 2007, published 2010).

Assay [1] deals with HUVEC. The assay can be described thus: Endothelial tube formation assay. Format: cell-based, human. The conditions noted are these: 10 micrograms per ml, 20 hours, average tubule length, combination peptide 1:peptide 2 0.95 mole:1.05 mole. On the procedure: The endothelial tube formation assay is based on the ability of endothelial cells to form three-dimensional capillary-like tubular structures when cultured on a gel of basement membrane extract. The endothelial tube formation assay represents a powerful model for studying inhibition and induction of angiogenesis. Pre-labeled HUVEC with Calcein AM were seeded in a 96-well culture plate coated with extracellular metrix (Chemicon international Cat. ECM625) and treated with test peptides—10 micrograms per ml—in full growth medium. Positive control was vehicle only. The endothelial cells were allowed to form tubes foe 20 hours and were then examined under an inverted fluorescent microscope. Duplicate wells for each treatment were photographed and quantitatively analyzed for an average tubule length using image analysis software ImageProPlus. Raw data were expressed as average tubule lenghs in pixels ±standard deviation. Statistic p values were computed using the Student's t-test.

Assay [2] deals with A549 cells. The experiment in a line: Apoptosis prevention assay (C2 ceramide, Annexin-5). Format: cell-based, human. To be noted: 10 micrograms per ml, 30 min pretreatment.
Assay [3] relates to Primary Human endothelial cells (HUVEC). The experiment in a line: Endothelial cell migration assay. Format: cell-based. To be noted: 10 micrograms per ml, 22 hours.
Assay [4] deals with HCMV strain AD169. The assay can be described thus: HCMV plaque formation assay in MRC-5 cells. To be noted: for inhibition of HCMV plaque formation as compared to the virus control experiment: 10 micrograms per ml, 7-10 days.
Assay [5] deals with IL-2, spleen cells. The assay can be described thus: Th1/Th2 cytokine profiling assay, IL-2. The conditions noted are these: 10 micrograms per ml; Ovalbumin-restimulated spleen cells, 72 hours. Format: cell-based, Balb/c mice. The text has this:
(§1) Th1/Th2 Cytokine Profiling Assay The Balb/c mice (originated in 1923, it is a popular strain and is used in many different research disciplines. […] On day 50, spleens of the mice were harvested (3 weeks after last boost with Ovalbumin). […] This kit can be used to measure Interleukin-2 (IL-2), Interleukin-4 (IL-4), Interleukin-5 (IL-5), Interferon-γ (IFN-γ), and Tumor Necrosis Factor-α (TNF-α) protein levels in a single sample. The kit performance has been optimized for analysis of physiologically relevant concentrations (pg/ml levels) of specific cytokine proteins in tissue culture supernatants and serum samples.

For assay [6], the system named is hepatitis B virus (HBV) ayw strain. The assay can be described thus: HBV experimental assay system, secreted HBV DNA by TaqMan PCR. Format: cell-based. To be noted: 10 micrograms per ml; HepG2-2.2.15, six days, HBV DNA in supernatant; combination 0.95 mole peptide 1 and 1.05 mole peptide 2. A general note: In qPCR the cycle at which signal appears reflects the starting amount.

Assay [7] deals with TNF-a, spleen cells. The experiment in a line: Th1/Th2 cytokine profiling assay, TNF-a. In kind it is cell-based, Balb/c mice. To be noted: 10 micrograms per ml; Ovalbumin-restimulated spleen cells, 72 hours.
Source text: as §1

Assay [8] deals with IL-4, spleen cells. The experiment in a line: Th1/Th2 cytokine profiling assay, IL-4. Format: cell-based, Balb/c mice. The conditions noted are these: 10 micrograms per ml; Ovalbumin-restimulated spleen cells, 72 hours.
Source text: as §1

Assay [9] relates to RAW 264.7 cells. The assay can be described thus: Phagocytosis assay (Fluorescein-labeled Escherichia coli, flow cytometry). In kind it is cell-based, mouse. The conditions noted are these: 10 micrograms per ml. For orientation: In flow cytometry, cells or beads pass a laser one at a time.
Assay [10] concerns IFNγ, spleen cells. The assay can be described thus: Th1/Th2 cytokine profiling assay, IFNγ. To be noted: 10 micrograms per ml; Ovalbumin-restimulated spleen cells, 72 hours. Format: cell-based, Balb/c mice.
Source text: as §1

For assay [11], the system named is IL-5, spleen cells. The assay can be described thus: Th1/Th2 cytokine profiling assay, IL-5. Format: cell-based, Balb/c mice. The conditions noted are these: 10 micrograms per ml; Ovalbumin-restimulated spleen cells, 72 hours.
Source text: as §1

For assay [12], the system named is HIV-1IIIB. The experiment in a line: HIV-1 antiviral assay in CEM-SS cells (MTS readout). To be noted: positive controls.

With “Ac-Ser-Pro-Tyr-Ser-Ser-Asp-Thr-Thr-Pro-Ala-Ala-Phe-Ala-Tyr-NH2 (Ac-SPYSSDTTPAAFAY-NH2) [peptide 1]”, the “inhibition of the tube formation of endothelial cells” value in assay [1] is 26%. The “increase of the ceramide-induced apoptosis on human lung cells” value in assay [2] turned out to be 13.2%. The “induction of the migration of human endothelial cells” value in assay [3] was determined as 11%. For the same compound, the “inhibition of HCMV plaque formation as compared to the virus control experiment” value in assay [4] was “did not inhibit HCMV plaque formation”. Besides, the “IL-2 spleen cells (% of control)” value in assay [5] is listed as 116.2 % of control. The “inhibition of HBV replication as compared to the virus control infection” value in [6] worked out at 40.7%. Also, the “TNF-a spleen cells; TH1 response (% of control)” value in assay [7] was 107.4 % of control. Further, the “IL-4 spleen cells; TH2 response (% of control)” value in assay [8] is 80.4 % of control. For the same compound, the “increase of the phagocytic activity of murine macrophages” value in assay [9] (RAW 264.7, Fluorescein-labeled E. coli) is recorded as 42.9%. In addition, the “IFNγ spleen cells; TH1 response (% of control)” value in assay [10] is 102.8 % of control. In addition, the “IL-5 spleen cells; TH2 response (% of control)” value in [11] is recorded as 70.7 % of control.

Consider “Cys-Gly-Asn-Leu-Ser-Thr-Cys-Met-Leu-Gly-Thr-Tyr-Thr-Gln-Asp-Phe-Asn-Lys-Phe-His-Thr-Phe-Pro-Gln-Thr-Ala-Ile-Gly-Val-Gly-Ala-Pro-NH2 [peptide 2]”, for which the “inhibition of the tube formation of endothelial cells” value in [1] stood at 18%. The “reduction of the ceramide-induced apoptosis on human lung cells” value in assay [2] (combination 0.95 mole peptide 1 and 1.05 mole peptide 2) is reported as 32.7%. For the same compound, the “inhibition of the migration of human endothelial cells” value in [3] is 26%. The “inhibition of HCMV plaque formation as compared to the virus control experiment” value in assay [4] was “did not inhibit HCMV plaque formation”. Moreover, in assay [5], the “IL-2 spleen cells (% of control)” value is 110.1 % of control. For the same compound, the “inhibition of HBV replication as compared to the virus control infection” value in [6] stood at 31.0%. Besides, the “TNF-a spleen cells; TH1 response (% of control)” value in [7] was 116.4 % of control. The “IL-4 spleen cells; TH2 response (% of control)” value in assay [8] is listed as 0.0 % of control. Also, the “inhibitory or activating effects on the phagocytic activity of murine macrophages” value in [9] (RAW 264.7, combination peptide 1:peptide 2 1.10 mole:0.90 mole) is “no inhibitory or activating effects on the phagocytic activity”. The “IFNγ spleen cells; TH1 response (% of control)” value in assay [10] is recorded as 63.7 % of control. The “IL-5 spleen cells; TH2 response (% of control)” value in assay [11] is reported as 60.2 % of control.

As for `Nc1nc(O)c2ncn(COC(CO)CO)c2n1` [Ganciclovir, reference compound], the “antiviral activity of positive control compound” value in [4] (HCMV AD169, positive control) is on record as “expected levels of antiviral activity”.

Consider `Cc1cn([C@H]2C[C@H](N=[N+]=[N-])[C@@H](CO)O2)c(=O)[nH]c1=O` [AZT], for which, in assay [12], the “antiviral activity of positive control compounds” value is “expected levels of antiviral activity”.

As for `CC(C)(C)NC(=O)[C@@H]1CN(Cc2cccnc2)CCN1C[C@@H](O)C[C@@H](Cc1ccccc1)C(=O)N[C@H]1c2ccccc2C[C@H]1O` [indinavir], the “antiviral activity of positive control compounds” value in [12] is “expected levels of antiviral activity”.
